# Results taken from ChEMBL document CHEMBL3244148, “Agonist effects of beta-phenethylamines on the noradrenergic cyclic adenosine 3',5'-monophosphate generating system in rat limbic forebrain. Stereoisomers of p-hydroxynorephedrine” (J Med Chem, 1977).
# Structures can show the parent of a compound that is named as a salt. Calls of active or inactive are those of the source. No cut-off for these calls is given here.
# Tested on: not listed separately
# Experiment: Agonist activity at noradrenergic receptor in Sprague-Dawley rat limbic forebrain assessed as increase in c-AMP production incubated for 10 mins
# Conditions: not given
row,SMILES,EC50 [µM]
1,CNC[C@H](O)c1ccc(O)c(O)c1 [EPINEPHRINE BITARTRATE],5
2,CNC[C@@H](O)c1ccc(O)c(O)c1,> 100
3,CC(C)NC[C@H](O)c1ccc(O)c(O)c1,5
4,CC(N)C(O)c1ccc(O)c(O)c1 (racemic) [NORDEFRIN HYDROCHLORIDE],10

# Species on record: Rattus norvegicus
# Experiment: Agonist activity at noradrenergic receptor in Sprague-Dawley rat limbic forebrain assessed as increase in c-AMP production up to 10^-4 M incubated for 10 mins
# Assay type: tissue-based
# Conditions: Limbic system
row,SMILES,Activity
1,C[C@H](N)Cc1ccccc1,inactive
2,C[C@H](N)[C@H](O)c1cccc(O)c1,inactive
3,NCC(O)c1ccc(O)cc1 (racemic),inactive
4,C[C@H](N)Cc1ccc(O)cc1,inactive
5,NCCc1ccc(O)c(O)c1,inactive
6,C[C@H](N)[C@H](O)c1ccc(O)cc1,inactive
7,C[C@H](N)[C@@H](O)c1ccc(O)cc1,inactive
